Among the data in PubChem BioAssay (NCI) are GI50 and TGI values, retold here.

“And” between values parts separate entries of the source, which are not always exact repeats. Identical values can stand only once.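 These data come from cells grown in 96-well plates and exposed to compound for 48 hours at five concentrations. GI50 = concentration required for 50% inhibition of growth. TGI: total growth inhibition.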

Test systems include CCRF-CEM leukemia; NCI/ADR-RES ovarian; K-562 leukemia; SNB-19 CNS; RXF 393 renal; HS 578T breast; HOP-62 NSCLC; UO-31 renal; BT-549 breast; SF-539 CNS.
Common to all, as to assay: NCI tumour cell line growth inhibition, 48 h

Take `COc1cc(-c2nn(-c3cccc(NC(=O)c4ccc(N5CCOCC5)c(C(F)(F)F)c4)c3)cc2-c2ccncc2)ccc1Cl`: the GI50 was 0.236 µM in the test with CCRF-CEM leukemia; 0.203 µM with NCI/ADR-RES ovarian; 0.0555 µM in the test on K-562 leukemia; 0.57 µM with SNB-19 CNS; 0.207 µM with RXF 393 renal; 0.257 µM in the test with HS 578T breast. Further, the GI50 is 0.524 µM in the test on HOP-62 NSCLC, 0.322 µM with UO-31 renal, 0.932 µM with BT-549 breast and 0.181 µM in the test with SF-539 CNS. The TGI in the test with CCRF-CEM leukemia was greater than 100 µM; in the test on NCI/ADR-RES ovarian, greater than 100 µM; in the test on K-562 leukemia it was greater than 100 µM; in the test on SNB-19 CNS, greater than 100 µM; with RXF 393 renal, 0.809 µM; in the test with HOP-62 NSCLC it was greater than 58.6 µM. Moreover, the TGI is 8.77 µM in the test on UO-31 renal, greater than 42 µM in the test with BT-549 breast and 0.552 µM in the test with SF-539 CNS.

As to `COc1ccc2c(c1OC)OCC(CN(C)C)C2=O` (centres undefined), the TGI in the test with CCRF-CEM leukemia is 8.54 µM; in the test with NCI/ADR-RES ovarian it was 72.1 µM; with K-562 leukemia it was 10.5 µM; in the test on SNB-19 CNS, greater than 100 µM; with RXF 393 renal it was 30.5 µM; with HS 578T breast, greater than 87.4 µM. The TGI is greater than 88.7 µM in the test on HOP-62 NSCLC, 32.5 µM in the test with UO-31 renal, 38.7 µM in the test on BT-549 breast and 36.7 µM in the test on SF-539 CNS.

Turning to `C[C@H]1[C@H]2[C@H]3CC[C@@H]4[C@@]5(C)C/C(=C/c6cccnc6)C(=O)C(C)(C)[C@@H]5CC[C@@]4(C)[C@]3(C)CC[C@]23CO[C@]1(C)[C@@H](C(=O)/C=C\c1cccnc1)C3`, the GI50 with CCRF-CEM leukemia is 0.44 µM; in the test on NCI/ADR-RES ovarian, 1.54 µM; with K-562 leukemia, 0.151 µM; in the test on SNB-19 CNS it was 0.869 µM; in the test with RXF 393 renal, 0.824 µM; in the test with HS 578T breast, 1.44 µM. Further, the GI50 was 1.47 µM with HOP-62 NSCLC, 0.675 µM in the test with UO-31 renal, 0.785 µM with BT-549 breast and 1.03 µM with SF-539 CNS. In addition, the TGI was greater than 50 µM in the test on CCRF-CEM leukemia; greater than 50 µM with NCI/ADR-RES ovarian; greater than 50 µM with K-562 leukemia; 1.76 µM in the test with SNB-19 CNS; 1.56 µM in the test on RXF 393 renal; 7.4 µM in the test with HS 578T breast. The TGI is greater than 15 µM in the test on HOP-62 NSCLC, 1.37 µM in the test with UO-31 renal, 1.83 µM in the test with BT-549 breast and 2.31 µM with SF-539 CNS.

Regarding `CCc1cc2c(cc1N1CCC(N3CCOCC3)CC1)C(C)(C)c1[nH]c3cc(C#N)ccc3c1C2=O`, the GI50 was 0.745 µM and 0.826 µM and 1.54 µM in the test with CCRF-CEM leukemia; 1.01 µM and 1.39 µM and 1.59 µM with NCI/ADR-RES ovarian; 3.76 µM and 2.12 µM and 1.94 µM in the test on K-562 leukemia; 1.66 µM and 1.79 µM and 3.17 µM in the test on SNB-19 CNS; 1.5 µM and 1.53 µM in the test with RXF 393 renal; 1.21 µM and 1.51 µM and 0.53 µM with HS 578T breast. The GI50 in the test with HOP-62 NSCLC was 0.849 µM and 1.4 µM and 1.43 µM; with UO-31 renal it was 1.23 µM and 1.13 µM and 1 µM; in the test on BT-549 breast, 1.49 µM and 1.6 µM; in the test with SF-539 CNS, 1.8 µM and 1.58 µM and 1.62 µM. The TGI in the test with CCRF-CEM leukemia is greater than 100 µM; in the test with NCI/ADR-RES ovarian, 3.81 µM and 6.34 µM and 6.47 µM; in the test with K-562 leukemia it was > 41.9 µM and 13.9 µM and > 10 µM; in the test with SNB-19 CNS, 4.02 µM and 4.44 µM and > 10 µM; in the test on RXF 393 renal it was 3.47 µM and 3.78 µM and 3.84 µM; with HS 578T breast, 4.88 µM and 5.56 µM and 4.22 µM. Also, the TGI with HOP-62 NSCLC was 2.61 µM and 3.03 µM and 3.42 µM; with UO-31 renal, 3.12 µM and 2.75 µM and 2.72 µM; with BT-549 breast, 3.69 µM and 3.87 µM; with SF-539 CNS, 3.92 µM and 3.43 µM and 3.86 µM.

`CCc1ccc2c(c1)N(CCO)C1=C(C(=O)OC1)C2c1cccc(Cl)c1` (centres undefined): the GI50 was 0.739 µM in the test with CCRF-CEM leukemia; 0.337 µM with NCI/ADR-RES ovarian; 0.485 µM with K-562 leukemia; 1.33 µM in the test on SNB-19 CNS; 0.378 µM in the test with RXF 393 renal; 1.37 µM in the test with HS 578T breast. Besides, the GI50 in the test on HOP-62 NSCLC was 0.774 µM; in the test on UO-31 renal it was 2.52 µM; in the test with BT-549 breast, 1.98 µM; in the test on SF-539 CNS it was 0.488 µM. Further, the TGI is 32 µM in the test with CCRF-CEM leukemia; 5.05 µM in the test on NCI/ADR-RES ovarian; 23.9 µM in the test with K-562 leukemia; 25.1 µM in the test on SNB-19 CNS; 3.57 µM in the test with RXF 393 renal; 32.2 µM with HS 578T breast. The TGI is 15.8 µM in the test on HOP-62 NSCLC, 20.9 µM with UO-31 renal, 18.7 µM with BT-549 breast and 11.4 µM with SF-539 CNS.

Turning to `O=c1c2c3c(sc2nc(N/N=C/c2ccc(Br)cc2)n1Cc1ccccc1)CCCC3`, the GI50 in the test with CCRF-CEM leukemia was 7.23 µM; in the test on NCI/ADR-RES ovarian it was greater than 100 µM; in the test with K-562 leukemia, 4.1 µM; in the test with SNB-19 CNS, 41.8 µM; with RXF 393 renal, 5.98 µM; in the test on HS 578T breast, greater than 100 µM. For the same compound, the GI50 in the test with HOP-62 NSCLC was 7.7 µM; in the test with UO-31 renal, 86.6 µM; with BT-549 breast, 8.02 µM; in the test with SF-539 CNS it was 10.8 µM. The TGI in the test with CCRF-CEM leukemia, with NCI/ADR-RES ovarian, in the test on K-562 leukemia, in the test on SNB-19 CNS, in the test on RXF 393 renal and in the test on HS 578T breast was greater than 100 µM each time. The TGI in the test with HOP-62 NSCLC, in the test with UO-31 renal, with BT-549 breast and with SF-539 CNS was greater than 100 µM each time.

For the compound `OCC1OC(n2cnc3c(Cl)nc(Cl)cc32)C(O)C1O` (centres undefined), the GI50 in the test with CCRF-CEM leukemia was greater than 100 µM; in the test with NCI/ADR-RES ovarian, greater than 100 µM; with K-562 leukemia, greater than 100 µM; in the test with SNB-19 CNS, greater than 100 µM; in the test with RXF 393 renal, greater than 100 µM; with HS 578T breast, 19.7 µM. In addition, the GI50 with HOP-62 NSCLC, in the test with UO-31 renal, in the test on BT-549 breast and with SF-539 CNS was greater than 100 µM in each case. The TGI in the test on CCRF-CEM leukemia, in the test on NCI/ADR-RES ovarian, with K-562 leukemia, with SNB-19 CNS, with RXF 393 renal and in the test on HS 578T breast was greater than 100 µM throughout. Further, the TGI with HOP-62 NSCLC, in the test on UO-31 renal, in the test with BT-549 breast and in the test with SF-539 CNS was greater than 100 µM in each case.
